Source: ChEMBL document CHEMBL6177980 (J Med Chem, 2025)
Calls of active or inactive are those of the source. The calls are words filed in the database; no cut-off is given here.

How the values were obtained:
[1] = Stability of compound at pH 1.5 assessed as change in purity at 1 mg/ml incubated for 24 hrs by HPLC analysis; assay type: physicochemical; conditions: buffer, pH 1.5, 24 h
[2] = Prodrug conversion in Sprague-Dawley rat assessed as volume of distribution at steady state of 4'-Fluorouridine metabolite treated orally or intravenously by LC-MS/MS analysis; assay type: ADME; conditions: in vivo, po
[3] = Prodrug conversion in Sprague-Dawley rat assessed as 4'-Fluorouridine metabolite formation in lung at 6 mg/kg, po measured for 0.5 to 24 hrs by LC-MS/MS analysis; assay type: ADME, organism-based; conditions: in vivo, time 0.5-24 hrs
[4] = Prodrug conversion in Beagle dog plasma assessed as parent nucleoside metabolite formation at 1 uM measured up to 60 mins by LC-MS/MS analysis; assay type: ADME, cell-free, Canis lupus familiaris; conditions: 1 h
[5] = Prodrug conversion in Sprague-Dawley rat assessed as 4'-Fluorouridine-NTP metabolite formation in spleen at 6 mg/kg, po measured for 0.5 to 24 hrs by LC-MS/MS analysis; assay type: ADME, organism-based; conditions: in vivo, time 0.5-24 hrs
[6] = Prodrug conversion in Sprague-Dawley rat assessed as AUC (0 to t) of 4'-Fluorouridine metabolite at 6 mg/kg/day, po treated for 7 days by LC-MS/MS analysis; assay type: ADME, organism-based; conditions: in vivo, 168 h, time 7 day
HepG2 = assay: Mitochondrial toxicity in human HepG2 cells cultured in glucose containing medium at 100 uM; assay type: cell-based; conditions: hepg2, 100 µM
[7] = Prodrug conversion in Sprague-Dawley rat assessed as AUC (0 to t) of 4'-Fluorouridine metabolite at 2 mg/kg, iv by LC-MS/MS analysis; assay type: ADME, organism-based; conditions: in vivo
[8] = Prodrug conversion in Sprague-Dawley rat assessed as Cmax of 4'-Fluorouridine metabolite at 6 mg/kg, po by LC-MS/MS analysis; assay type: ADME, organism-based; conditions: in vivo
[9] = Stability of compound at pH 1.5 assessed as change in purity at 1 mg/ml incubated for 12 hrs by HPLC analysis; assay type: physicochemical; conditions: buffer, pH 1.5, 12 h
[10] = Prodrug conversion in Beagle dog assessed as volume of distribution at steady state of 4'-Fluorouridine metabolite treated orally or intravenously by LC-MS/MS analysis; assay type: ADME, Canis lupus familiaris; conditions: in vivo, po
[11] = Prodrug conversion in Beagle dog assessed as Cmax of 4'-Fluorouridine metabolite at 1 mg/kg, po by LC-MS/MS analysis; assay type: ADME, organism-based, Canis lupus familiaris; conditions: in vivo
[12] = test system: Mammarenavirus choriomeningitidis; assay: Antiviral activity against LCMV infected in C57BL/6-Prf1tm1Sdz/J mouse assessed as reduction in viral copy number in kidney treated orally once daily for 7 days by RT-qPCR analysis; assay type: functional, organism-based; conditions: dose 1-5 mg/kg, route po, time 7.0 day
[13] = Stability in SGF assessed as compound degradation measured for 24 hrs by HPLC analysis; assay type: physicochemical; conditions: simulated gastric fluid (SGF), read-out: Drug degradation
[14] = Toxicity in Sprague-Dawley rat assessed as maximum tolerated dose; conditions: in vivo
[15] = test system: Mammarenavirus choriomeningitidis; assay: In vivo antiviral activity against LCMV infected in C57BL/6-Prf1tm1Sdz/J mouse assessed as void of inflammatory cell inflammation in spleen at 1 to 5 mg/kg, po qd for 7 days; assay type: functional, organism-based; conditions: dose 1-5 mg/kg, time 7.0 day
[16] = test system: Mammarenavirus choriomeningitidis; assay: In vivo antiviral activity against LCMV infected in C57BL/6-Prf1tm1Sdz/J mouse assessed as improvement in lymphocytes percentage at 1 to 5 mg/kg, po qd treated for 7 days; assay type: functional, organism-based; conditions: dose 1-5 mg/kg, time 7.0 day
[17] = Prodrug conversion in C57BL/6J mouse assessed as AUC (0 to t) of 4'-Fluorouridine metabolite at 2 mg/kg, po by LC-MS/MS analysis; assay type: ADME, organism-based; conditions: in vivo
[18] = test system: Mammarenavirus choriomeningitidis; assay: Antiviral activity against LCMV infected in C57BL/6-Prf1tm1Sdz/J mouse assessed as reduction in viral titer in lung treated orally once daily for 7 days by RT-qPCR analysis; assay type: functional, organism-based; conditions: dose 1-5 mg/kg, route po, time 7.0 day
[19] = Prodrug conversion in C57BL/6J mouse assessed as AUC (0 to t) of 4'-Fluorouridine metabolite at 20 mg/kg, po by LC-MS/MS analysis; assay type: ADME, organism-based; conditions: in vivo
[20] = Prodrug conversion in Beagle dog assessed as AUC (0 to t) of 4'-Fluorouridine metabolite at 10 mg/kg, po by LC-MS/MS analysis; assay type: ADME, organism-based, Canis lupus familiaris; conditions: in vivo
[21] = Stability of compound at pH 6.8 assessed as change in purity at 1 mg/ml incubated for 4 hrs by HPLC analysis; assay type: physicochemical; conditions: buffer, pH 6.8, 4 h
[22] = Prodrug conversion in Beagle dog assessed as AUC (0 to t) of 4'-Fluorouridine metabolite at 1 mg/kg, iv by LC-MS/MS analysis; assay type: ADME, organism-based, Canis lupus familiaris; conditions: in vivo
[23] = Prodrug conversion in C57BL/6J mouse plasma assessed as parent nucleoside metabolite formation at 1 uM measured up to 60 mins by LC-MS/MS analysis; assay type: ADME, cell-free; conditions: 1 h
[24] = Prodrug conversion in C57BL/6J mouse liver microsomes assessed as parent nucleoside metabolite formation at 1 uM measured up to 60 mins in presence of NADPH/UDPGA by LC-MS/MS analysis; assay type: ADME, Microsome; conditions: 1 h
[25] = Prodrug conversion in Beagle dog assessed as Cmax of 4'-Fluorouridine metabolite at 3 mg/kg, po by LC-MS/MS analysis; assay type: ADME, organism-based, Canis lupus familiaris; conditions: in vivo
[26] = Prodrug conversion in Sprague-Dawley rat assessed as 4'-Fluorouridine metabolite formation in spleen at 6 mg/kg, po measured for 0.5 to 24 hrs by LC-MS/MS analysis; assay type: ADME, organism-based; conditions: in vivo, time 0.5-24 hrs
[27] = Prodrug conversion in Sprague-Dawley rat assessed as 4'-Fluorouridine metabolite formation in stomach at 6 mg/kg, po measured for 0.5 to 24 hrs by LC-MS/MS analysis; assay type: ADME, organism-based; conditions: in vivo, time 0.5-24 hrs
[28] = Prodrug conversion in C57BL/6J mouse plasma assessed as parent nucleoside metabolite formation administered orally or intravenously; assay type: ADME, cell-free; conditions: po
[29] = Cmax in fasted Sprague-Dawley rat at 23 mg/kg, po by LC-MS/MS analysis; assay type: ADME, organism-based; conditions: in vivo
[30] = Prodrug conversion in Beagle dog liver microsomes assessed as parent nucleoside metabolite formation at 1 uM measured up to 60 mins in presence of NADPH/UDPGA by LC-MS/MS analysis; assay type: ADME, Canis lupus familiaris, Microsome; conditions: 1 h
[31] = Stability of compound at pH 4.0 assessed as change in purity at 1 mg/ml incubated for 4 hrs by HPLC analysis; assay type: physicochemical; conditions: buffer, pH 4, 4 h
[32] = Prodrug conversion in Sprague-Dawley rat assessed as 4'-Fluorouridine metabolite formation in small intestine at 6 mg/kg, po measured for 0.5 to 24 hrs by LC-MS/MS analysis; assay type: ADME, organism-based; conditions: in vivo, time 0.5-24 hrs
[33] = Stability of compound at pH 6.8 assessed as change in purity at 1 mg/ml incubated for 12 hrs by HPLC analysis; assay type: physicochemical; conditions: buffer, pH 6.8, 12 h
[34] = Toxicity in Sprague-Dawley rat assessed as drug tolerance administered as single dose; conditions: in vivo
[35] = test system: Mammarenavirus choriomeningitidis; assay: In vivo antiviral activity against LCMV infected in C57BL/6-Prf1tm1Sdz/J mouse assessed as void of necrosis in spleen at 1 to 5 mg/kg, po qd for 7 days; assay type: functional, organism-based; conditions: dose 1-5 mg/kg, time 7.0 day
[36] = test system: Mammarenavirus choriomeningitidis; assay: Antiviral activity against LCMV infected in C57BL/6-Prf1tm1Sdz/J mouse assessed as reduction in viral titer in liver treated orally once daily for 7 days by RT-qPCR analysis; assay type: functional, organism-based; conditions: dose 1-5 mg/kg, route po, time 7.0 day

CC(C)C(=O)OC[C@@]1(F)O[C@@H](n2ccc(=O)n(COC(=O)c3cccnc3)c2=O)[C@H](OC(=O)C(C)C)[C@@H]1OC(=O)C(C)C
Activity [1]: -9.2%
Vdss [2]: 24.3 L/kg
Drug metabolism [3]: metabolite_detected
Drug metabolism [4]: metabolite_detected
Drug metabolism [5]: metabolite_detected
AUCt [6]: 4084 ng·h/mL
Activity (HepG2): Non-toxic
AUCt [7]: 1056 ng·h/mL
Cmax [8]: 329 ng/mL
Activity [9]: -4.2%
Vdss [10]: 3.07 L/kg
Cmax [11]: 139 ng/mL
Activity [12]: Dose-dependent-effect
degraded at 24 h [13]: < 5%
MTD [14]: > 500 mg/kg
Activity [15]: Active
Activity [16]: Active
AUCt [17]: 826 ng·h/mL
Activity [18]: Dose-dependent-effect
AUCt [19]: 7586 ng·h/mL
AUCt [20]: 3601 ng·h/mL
Activity [21]: -0.1%
AUCt [22]: 282 ng·h/mL
Drug metabolism [23]: metabolite_detected
Drug metabolism [24]: metabolite_detected
Cmax [25]: 495 ng/mL
Drug metabolism [26]: metabolite_detected
Drug metabolism [27]: metabolite_detected
Drug metabolism [28]: metabolite_detected
Cmax [29]: 1230 ng/mL
Drug metabolism [30]: metabolite_detected
Activity [31]: 0%
Drug metabolism [32]: metabolite_detected
Activity [33]: -0.3%
Activity [34]: Non-toxic
Activity [35]: Active
Activity [36]: Dose-dependent-effect
